Measurements taken from patent US5491155A, “Substituted thiadiazoles, compositions containing them and their use as antimicrobial and marine antifouling agents” (The Dow Chemical Company, priority 1994, dated 1996).
Values after ≈ are worked out from the molar mass of the structure shown. Where two headings read alike, the source gives them in different places.

Tests used:
[1] = tested on: Pseudomonas aeruginosa (PRD-10); test: MIC in nutrient agar, Pseudomonas aeruginosa (PRD-10); assay type: cell-based, Pseudomonas aeruginosa (ATCC 15442); settings: PRD, 48 hours, read-out: Minimum Inhibitory Concentration (MIC)
Method: (§1) The minimum inhibitory concentration (MIC) for the compounds listed in Table I is determined for bacteria, using nutrient agar, and 7 yeast and fungi, using malt yeast agar. A one percent solution of the test compound is prepared in a mixture of acetone and water.
(§2) Nutrient agar is prepared at pH 6.8, representing a neutral medium, and at pH 8.2, representing an alkaline medium. The nutrient agars are prepared by adding 23 g of nutrient agar to one-liter of deionized water. In addition, the alkaline medium is prepared by adjusting a 0.04M solution of N-(tris-(hydroxymethyl)methyl)glycine buffered deionized water with concentrated sodium hydroxide to a pH of 8.5.
(§3) The test tubes containing the agar are cooled in a water bath until the temperature of the agar is 48° C. Then, an appropriate amount of the one percent solution of the test compound is added (except in the controls where no compound is added) to the respective test tubes so that the final concentrations are 500, 250, 100, 50, 25, 10, 2.5, 1.0 and zero parts per million of the test compound in the agar, thus having a known concentration of test compound dispersed therein. The contents of the test tubes are then transferred to respective petri plates. After drying for 24 hours, the petri plates containing nutrient agar are inoculated with bacteria and those containing malt yeast agar are inoculated with yeast and fungi.
(§4) The inoculation with bacteria is accomplished by using the following procedure. Twenty-four hour-cultures of each of the bacteria are prepared by incubating the respective bacteria in tubes containing nutrient broth for 24 hours at 30° C. in a shaker. Dilutions of each of the 24 hour-cultures are made so that nine separate suspensions (one for each of the nine test bacteria) are made, each containing 10^8 colony forming units (CFU) per mL of suspension of a particular bacteria. Aliquots of 0.3 mL of each of the bacterial suspensions are used to fill the individual wells of Steer's Replicator. For each microbial suspension, 0.3 mL was used to fill three wells (i.e., three wells of 0.3 mL each) so that for the nine different bacteria, 27 wells are filled. The Steer's Replicator is then used to inoculate both the neutral and alkaline pH nutrient agar petri plates.
(§5) The inoculated petri plates are incubated at 30° C. for 48 hours and then read to determine if the test compound which is incorporated into the agar prevented growth of the respective bacteria.
(§6) Table II lists the bacteria, yeast and fungi used in the MIC test described above along with their respective American Type Culture Collection (ATCC) identification numbers.
(§7) In Tables III and IV, the MIC values of the compounds described in Table I as compared to the MIC of a standard commercial preservative (with 1-(3-chloroalkyl)-3,5,7-triaza-1-azoniaadamantane chloride as the active agent and referred to in Tables III and IV as "STANDARD I") are set forth for the bacteria organisms and yeast/fungi organisms which are listed in Table II.

[2] = tested on: marine organisms; test: Marine antifouling test on coated panels; settings: scale 10 (completely free of marine organism growth) to 0 (completely covered)
Method: Test panels are prepared from clear, rigid polyvinyl chloride film that is 0.381×10^-3 m thick and has one textured surface. The test panels are 0.1524 m by 0.1524 m squares that have 0.00635 m holes punched at corners on 0.127 m centers. A 0.102 square template, with a 0.067 m diameter hole at the center, is attached to the center of the textured surface of the test panels.
A candidate marine antifoulant compound (1.0 g) is stirred into a resinous latex binder (9.0 g). A portion of the compound/binder mixture (1.5 g, is added to the center of the test panel and uniformly spread over the circular area inside the template.
Water is added dropwise as needed to properly spread the compound/binder mixture. The template prevents the compound/binder mixture from spreading beyond the uncovered area. […] The template is then removed. The test panel is then allowed to dry for 8 to 12 hours at room temperature.
Two test panels are prepared for each candidate marine antifoulant compound. Two control test panels are also prepared by only treating with the resinous latex binder. One test panel of each candidate marine […] compound is attached over a white background to the topside of an exposure support apparatus. The second test panel is attached over a black background to the underside of the exposure support apparatus. The exposure support apparatus is placed horizontally 0.0254 m under a marine surface with the white background topside facing up.
After being removed from the exposure support apparatus, each test panel is inspected and rated for marine organism growth on both the treated and untreated areas of the test panel. The marine organisms present on the treated and untreated areas are noted. The presence of algae spores and bacterial slime are noted but not included in rating each test panel. The test panels are rated on a scale from 10 (representing completely free of marine organism growth) to 0 (representing completely covered with marine organism growth).
In addition, test panels were prepared using tributyl tin oxide, a known marine antifouling compound.

[3] = tested on: Aureobasidium pullulan; test: MIC in malt yeast agar, Aureobasidium pullulan; assay type: cell-based, Aureobasidium pullulan (ATCC 16622); settings: Ap; malt yeast agar; 30° C.; 72 hours for fungi; read-out: Minimum Inhibitory Concentration (MIC)
Method: as §1
(§8) Malt yeast agar is prepared by adding 3 g yeast extract and 45 g malt agar per liter of deionized water. The specific agar is dispensed in 30 mL aliquots into 25×200 mm test tubes, capped and autoclaved for 15 minutes at 115° C.
as §3
(§9) The inoculation with the yeast and fungi is accomplished as follows. Cultures of yeast and fungi are incubated for seven days on malt yeast agar at 30° C. These cultures are used to prepare suspensions by the following procedure. A suspension of each organism is prepared by adding 10 mL of sterile saline and 10 microliters of octylphenoxy polyethoxy ethanol to the agar slant of yeast or fungi. The sterile saline/octylphenoxy polyethoxy ethanol solution is then agitated with a sterile swab to suspend the microorganism grown on the slant. Each resulting suspension is diluted into sterile saline (1 part suspension: 9 parts sterile saline). Aliquots of these dilutions are placed in individual wells of Steer's Replicator and petri plates inoculated as previously described. The petri plates are incubated at 30° C. and read after 48 hours for yeast and 72 hours for fungi.
as §6, §7

[4] = tested on: Escherichia coli; test: MIC in nutrient agar, Escherichia coli; assay type: cell-based, Escherichia coli (ATCC 11229); settings: Ec, 48 hours, read-out: Minimum Inhibitory Concentration (MIC)
Method: as §1, §2, §3, §4, §5, §6, §7

[5] = tested on: Staphylococcus aureus; test: MIC in nutrient agar, Staphylococcus aureus; assay type: cell-based, Staphylococcus aureus (ATCC 6538); settings: Sa, 48 hours, read-out: Minimum Inhibitory Concentration (MIC)
Method: as §1, §2, §3, §4, §5, §6, §7

[6] = tested on: Trichoderma viride; test: MIC in malt yeast agar, Trichoderma viride; assay type: cell-based, Trichoderma viride (ATCC 8678); settings: Tv; malt yeast agar; 30° C.; 72 hours for fungi; read-out: Minimum Inhibitory Concentration (MIC)
Method: as §1, §8, §3, §9, §6, §7

[7] = tested on: Aspergillus niger; test: MIC in malt yeast agar, Aspergillus niger; assay type: cell-based, Aspergillus niger (ATCC 16404); settings: An; malt yeast agar; 30° C.; 72 hours for fungi; read-out: Minimum Inhibitory Concentration (MIC)
Method: as §1, §8, §3, §9, §6, §7

Row | MIC ([1]; pH 6.8, 30° C.) [µg/mL] | MIC ([1]; pH 8.2, 30° C.) [µg/mL] | MIC [3] [µg/mL] | MIC ([4]; pH 6.8, 30° C.) [µg/mL] | MIC ([4]; pH 8.2, 30° C.) [µg/mL] | MIC ([5]; pH 6.8, 30° C.) [µg/mL] | MIC ([5]; pH 8.2, 30° C.) [µg/mL] | MIC [6] [µg/mL] | MIC [7] [µg/mL] | Structure (SMILES) | Marine Antifouling Rating ([2]; 10 Week Test, Bottom Panel) | Marine Antifouling Rating ([2]; 10 Week Test, Top Panel) | Marine Antifouling Rating ([2]; 20 Week Test, Bottom Panel) | Marine Antifouling Rating ([2]; 20 Week Test, Top Panel)
1 | 25 (≈ 125 µM) | 250 (≈ 1250 µM) | < 1 | 25 (≈ 125 µM) | 50 (≈ 250 µM) | 25 (≈ 125 µM) | 100 (≈ 499 µM) | 5 (≈ 25 µM) | < 1 | N#CSc1nsnc1SC#N [Example 2, Bis(thiocyanato)-1,2,5-thiadiazole] | 9 | 9 | 7 | 2
2 | 25 (≈ 85.5 µM) | 25 (≈ 85.5 µM) | < 2.5 | 25 (≈ 85.5 µM) | < 10 | < 10 | < 10 | 10 (≈ 34.2 µM) | < 2.5 | N#CSCSc1nsnc1SCSC#N [Example 4, Bis(thiomethylthiocyanato)-1,2,5-thiadiazole] | 9 | 9 | 5 | 7
